Laboratory results published in patent US20060235046A1, “Use of an epidermal growth factor receptor kinase inhibitor (EGFR) in gefitinib resistant patients” (Wyeth, priority 2005, published 2006).

Columns and labels:
NSCLC = conditions: in some cases; re-treatment when NSCLC recurs in patients treated with gefitinib; cited from earlier work
[1] = test system: non-small cell lung cancer (NSCLC); experiment: Report on 2 patients with non-small cell lung cancer (NSCLC) who received EKB-569 after gefitinib and recurrence; format: in vivo, human; conditions: two patients (Exon 19 del E746-A750, 25 mg/day for 9 months; Exon 21 L858R, 35 mg/day for 4 months) after treatment with gefitinib and recurrence of NSCLC
Protocol: Report on 2 Patients with Non-Small Cell Lung Cancer (NSCLC) Who Received EKB-569.
A person with a smoking history BI 720 […] having adenocarcinoma and cT0NOM1 (multiple pulmonary metastasis). Exon 19 deletion E746-A750 is identified. Herception test score was 0+ and EGFR score 2+. The patient was given 25 mg/day EKB-569 for 9 months.
A person with a smoking history of BI 30 (10×3 years) having adenocarcinoma performance status 1, cT0N3M1 (pulmonary, brain and bone). Exon 21 point mutation L858R. HercepTest score +, EGFR score 3+, EKB-569 35 mg/day for 4 months.
Phase 1 dose-escalation study of EKB-569 was completed in Japanese patients with advanced-stage malignancies known to overexpress EGFR.

| Structure (SMILES) | effectiveness of re-treatment in recurrent NSCLC (NSCLC) | clinical effectiveness in NSCLC patients [1] |
| --- | --- | --- |
| COc1cc2ncnc(Nc3ccc(F)c(Cl)c3)c2cc1OCCCN1CCOCC1 [gefitinib] | effective |  |
| CCOc1cc2ncc(C#N)c(Nc3ccc(F)c(Cl)c3)c2cc1NC(=O)C=CCN(C)C [EKB-569, 4-dimethylamino-but-2-enoic acid [4-(3-chloro-4-fluoro-phenylamino)-3-cyano-7-ethoxy-quinolin-6-yl]-amide] |  | effective |
